We go through 22 molecules from ChEMBL document CHEMBL1909046, “DrugMatrix in vitro pharmacology data”.

The target of data set [1] is 5-hydroxytryptamine receptor 4 (Cavia porcellus, UniProt O70528). Format: cell membranes, Dunkin-Hartley, Striatum, Membrane. Note: in other assays of this panel Not Active means under 50% inhibition at 10 µM.
The target of data set [2] is T1, C-C chemokine receptor type 4 (Homo sapiens, UniProt P51679). Note: in other assays of this panel Not Active means under 50% inhibition at 10 µM.
T1 sequence (P51679 whole entry): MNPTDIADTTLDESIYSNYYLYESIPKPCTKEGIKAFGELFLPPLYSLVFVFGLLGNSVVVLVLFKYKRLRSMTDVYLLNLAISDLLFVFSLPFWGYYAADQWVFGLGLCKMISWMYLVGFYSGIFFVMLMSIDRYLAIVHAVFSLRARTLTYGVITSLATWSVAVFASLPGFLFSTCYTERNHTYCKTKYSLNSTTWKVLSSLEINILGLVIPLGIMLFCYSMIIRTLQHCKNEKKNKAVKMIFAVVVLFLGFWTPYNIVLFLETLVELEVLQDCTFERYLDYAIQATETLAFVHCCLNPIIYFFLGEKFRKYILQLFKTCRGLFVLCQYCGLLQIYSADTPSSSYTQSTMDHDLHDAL
Format: cell membranes, Chem-1, Membrane.

Data set [3] addresses T2, Muscarinic acetylcholine receptor M4 (Homo sapiens, UniProt P08173).
T2 sequence (P08173 whole entry): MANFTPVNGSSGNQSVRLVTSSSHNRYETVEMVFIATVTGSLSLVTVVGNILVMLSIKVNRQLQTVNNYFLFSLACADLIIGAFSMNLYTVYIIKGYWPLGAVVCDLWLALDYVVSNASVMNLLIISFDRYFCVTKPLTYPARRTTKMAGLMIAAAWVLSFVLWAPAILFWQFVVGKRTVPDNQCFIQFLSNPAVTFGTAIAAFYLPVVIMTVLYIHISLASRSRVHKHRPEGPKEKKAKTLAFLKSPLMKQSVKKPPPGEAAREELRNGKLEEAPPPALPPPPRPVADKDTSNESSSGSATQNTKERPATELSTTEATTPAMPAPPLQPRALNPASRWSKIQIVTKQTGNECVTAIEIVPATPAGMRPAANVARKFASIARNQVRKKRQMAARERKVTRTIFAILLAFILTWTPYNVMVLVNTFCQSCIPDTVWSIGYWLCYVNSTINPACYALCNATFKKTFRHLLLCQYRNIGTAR
Type of data set: cell membranes, CHO-K1, Membrane. The following applies: for Ki: read-out: Ki.

Data set [4] addresses cGMP-specific 3',5'-cyclic phosphodiesterase (Homo sapiens, UniProt O76074). Nature of the data set: DRUGMATRIX: Phosphodiesterase PDE5 enzyme inhibition (substrate: [3H]cGMP + cGMP). Type of data set: tissue-based. The following applies: platelet; Not Active = under 50% inhibition at 10 µM.
In data set [5] the target is Platelet-activating factor receptor (Homo sapiens, UniProt P25105). Format: tissue-based. Note: in other assays of this panel Not Active means under 50% inhibition at 10 µM.
Platelet-activating factor receptor, sequence (P25105 whole entry): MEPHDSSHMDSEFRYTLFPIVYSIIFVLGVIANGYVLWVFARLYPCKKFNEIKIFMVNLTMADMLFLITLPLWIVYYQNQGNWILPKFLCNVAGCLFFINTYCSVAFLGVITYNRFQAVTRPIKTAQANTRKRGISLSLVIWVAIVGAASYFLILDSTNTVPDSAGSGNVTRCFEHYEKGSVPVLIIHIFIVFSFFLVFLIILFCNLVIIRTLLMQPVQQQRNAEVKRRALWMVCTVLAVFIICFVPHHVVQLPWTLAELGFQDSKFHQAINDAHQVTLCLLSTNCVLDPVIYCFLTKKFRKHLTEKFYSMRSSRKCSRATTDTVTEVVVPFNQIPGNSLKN
A further data set deals with Adenosine receptor A2a (Homo sapiens, UniProt P29274). Description: DRUGMATRIX: Adenosine A2A radioligand binding (ligand: […]). Format: cell membranes, Membrane. The following applies: hek293; Not Active = under 50% inhibition at 10 µM.
Adenosine receptor A2a, sequence (P29274 whole entry): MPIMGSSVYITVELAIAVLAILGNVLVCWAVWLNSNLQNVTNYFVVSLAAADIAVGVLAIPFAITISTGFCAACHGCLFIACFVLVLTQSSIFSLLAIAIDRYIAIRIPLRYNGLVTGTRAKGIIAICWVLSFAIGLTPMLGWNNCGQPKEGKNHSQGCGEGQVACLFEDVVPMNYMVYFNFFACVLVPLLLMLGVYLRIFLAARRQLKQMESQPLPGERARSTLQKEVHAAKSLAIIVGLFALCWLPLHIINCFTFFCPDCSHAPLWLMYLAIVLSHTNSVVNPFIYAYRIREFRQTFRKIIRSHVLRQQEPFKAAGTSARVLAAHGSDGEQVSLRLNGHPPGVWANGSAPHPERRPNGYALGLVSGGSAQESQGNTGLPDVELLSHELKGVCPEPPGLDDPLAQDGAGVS
In another data set the target is Cytochrome P450 3A4 (Homo sapiens, UniProt P08684). The settings on record: bti-tn-5b1-4. Note: in other assays of this panel Not Active means under 50% inhibition at 10 µM.
Cytochrome P450 3A4, sequence (P08684 whole entry): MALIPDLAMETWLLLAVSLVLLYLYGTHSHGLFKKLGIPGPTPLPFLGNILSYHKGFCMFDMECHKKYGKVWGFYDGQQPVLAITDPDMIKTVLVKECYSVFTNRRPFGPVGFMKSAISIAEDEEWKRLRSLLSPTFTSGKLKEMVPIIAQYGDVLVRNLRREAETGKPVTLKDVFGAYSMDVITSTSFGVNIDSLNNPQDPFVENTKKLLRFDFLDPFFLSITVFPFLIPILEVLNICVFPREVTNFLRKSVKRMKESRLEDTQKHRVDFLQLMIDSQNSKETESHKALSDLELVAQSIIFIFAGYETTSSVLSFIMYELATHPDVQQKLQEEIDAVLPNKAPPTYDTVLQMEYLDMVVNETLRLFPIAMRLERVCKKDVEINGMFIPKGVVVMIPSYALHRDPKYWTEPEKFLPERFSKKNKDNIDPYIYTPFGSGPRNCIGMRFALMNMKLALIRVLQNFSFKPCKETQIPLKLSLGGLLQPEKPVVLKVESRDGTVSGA

5-hydroxytryptamine receptor 4, sequence (O70528 whole entry): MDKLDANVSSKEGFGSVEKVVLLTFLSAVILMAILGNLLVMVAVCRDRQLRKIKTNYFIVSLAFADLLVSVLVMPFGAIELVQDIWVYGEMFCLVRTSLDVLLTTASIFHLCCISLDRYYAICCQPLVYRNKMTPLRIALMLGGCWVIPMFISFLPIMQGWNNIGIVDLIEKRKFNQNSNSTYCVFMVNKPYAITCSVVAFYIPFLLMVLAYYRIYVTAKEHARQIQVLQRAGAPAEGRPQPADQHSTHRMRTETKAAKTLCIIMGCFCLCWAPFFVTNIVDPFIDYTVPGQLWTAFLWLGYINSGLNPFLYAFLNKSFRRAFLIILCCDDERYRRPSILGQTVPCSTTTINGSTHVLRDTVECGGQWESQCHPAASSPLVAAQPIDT

By IC50 is commonly meant the concentration that gives 50% inhibition. The Ki is the equilibrium dissociation constant of an inhibitor or competing ligand from its target. As to `CC(C)(C)NC(=O)[C@@H]1C[C@@H]2CCCC[C@@H]2CN1C[C@@H](O)[C@H](Cc1ccccc1)NC(=O)[C@H](CC(N)=O)NC(=O)c1ccc2ccccc2n1`, the IC50 result (in data set [1]; in data set [2] (chem-1); in data set [3] (cho-k1); in data set [4]; in data set [5]; at Adenosine receptor A2a) was “Not Active” throughout. The IC50 entry at Cytochrome P450 3A4 is given as “Not Active”. Further, the Ki result at Cytochrome P450 3A4 is reported as “Not Active”.
For the molecule `CC(=O)[C@@]1(O)CC[C@H]2[C@@H]3C[C@H](C)C4=CC(=O)CC[C@]4(C)[C@H]3CC[C@@]21C`, the IC50 result (in data set [1]; in data set [2] (chem-1); in data set [3] (cho-k1); in data set [4]; in data set [5]; at Adenosine receptor A2a) was “Not Active” in each case. The IC50 result at Cytochrome P450 3A4 is reported as “Not Active”. The Ki entry on Cytochrome P450 3A4 is “Not Active”.
With `N[C@@H](Cc1ccc(N(CCCl)CCCl)cc1)C(=O)O`, the IC50 entry (in data set [1]; in data set [2] (chem-1); in data set [3] (cho-k1); in data set [4]; in data set [5]; on Adenosine receptor A2a) was “Not Active” each time. The IC50 entry against Cytochrome P450 3A4 is listed as “Not Active”. Moreover, the Ki result at Cytochrome P450 3A4 is “Not Active”.
For the molecule `CCCCc1oc2ccccc2c1C(=O)c1cc(I)c(OCCN(CC)CC)c(I)c1` [AMIODARONE], the IC50 entry in data set [1] was “Not Active”; in data set [2] (read-out: IC50) it was 21800 nM; in data set [3] (read-out: IC50), 3630 nM; in data set [4], “Not Active”; in data set [5] it was “Not Active”; at Adenosine receptor A2a it was “Not Active”. Besides, the Ki in data set [2] (read-out: Ki) was 11400 nM; in data set [3], 506 nM.
For the molecule `OCCN(CCO)c1nc(N2CCCCC2)c2nc(N(CCO)CCO)nc(N3CCCCC3)c2n1` [DIPYRIDAMOLE], the IC50 result (in data set [1]; in data set [2] (chem-1); in data set [3] (cho-k1); in data set [5]; at Adenosine receptor A2a) was “Not Active” each time.
Consider `Cc1oncc1C(=O)Nc1ccc(C(F)(F)F)cc1` [LEFLUNOMIDE], for which the IC50 entry (in data set [1]; in data set [2] (chem-1); in data set [3] (cho-k1); in data set [4]; in data set [5]; on Adenosine receptor A2a) was “Not Active” throughout. On Cytochrome P450 3A4, the IC50 result is on record as “Not Active”. Also, at Cytochrome P450 3A4, the Ki result is “Not Active”.
Regarding `c1ccc([C@H]2CN3CCSC3=N2)cc1` [LEVAMISOLE], the IC50 entry (in data set [1]; in data set [2] (chem-1); in data set [3] (cho-k1); in data set [4]; in data set [5]; on Adenosine receptor A2a) was “Not Active” in each case. Also, the half-inhibitory concentration (IC50) entry at Cytochrome P450 3A4 was “Not Active”. The Ki result on Cytochrome P450 3A4 was “Not Active”.
As for `N[C@@H](Cc1ccc(O)c(O)c1)C(=O)O` [LEVODOPA], the IC50 entry (in data set [1]; in data set [2] (chem-1); in data set [3] (cho-k1); in data set [4]; in data set [5]; on Adenosine receptor A2a) was “Not Active” each time. On Cytochrome P450 3A4, the IC50 result is “Not Active”. In addition, the Ki result on Cytochrome P450 3A4 was “Not Active”.
For `N[C@@H](Cc1cc(I)c(Oc2ccc(O)c(I)c2)c(I)c1)C(=O)O` [LIOTHYRONINE], the IC50 entry (in data set [1]; in data set [2] (chem-1); in data set [3] (cho-k1); in data set [4]; in data set [5]; on Adenosine receptor A2a) was “Not Active” in each case.
In the case of `O=NN(CCCl)C(=O)NC1CCCCC1` [LOMUSTINE], the IC50 result (in data set [1]; in data set [2] (chem-1); in data set [3] (cho-k1); in data set [4]; in data set [5]; at Adenosine receptor A2a) was “Not Active” throughout. The IC50 result at Cytochrome P450 3A4 was “Not Active”. Also, on Cytochrome P450 3A4, the Ki result is reported as “Not Active”.
For `CCOC(=O)N1CCC(=C2c3ccc(Cl)cc3CCc3cccnc32)CC1` [LORATADINE], the IC50 entry (in data set [1]; in data set [2] (chem-1); in data set [3] (cho-k1); in data set [4]; in data set [5]; on Adenosine receptor A2a) was “Not Active” throughout.
As for `Cn1ccnc1S` [METHIMAZOLE], the IC50 entry (in data set [1]; in data set [2] (chem-1); in data set [3] (cho-k1); in data set [4]; in data set [5]; at Adenosine receptor A2a) was “Not Active” throughout.
For the molecule `CC[C@@H](CO)NC(=O)[C@@H]1C=C2c3cccc4[nH]cc(c34)C[C@H]2N(C)C1` [METHYLERGONOVINE], the IC50 entry (in data set [1]; in data set [2] (chem-1); in data set [3] (cho-k1); in data set [4]; in data set [5]; on Adenosine receptor A2a) was “Not Active” each time. In addition, at Cytochrome P450 3A4, the IC50 entry is given as “Not Active”. The Ki entry on Cytochrome P450 3A4 is reported as “Not Active”.
In the case of `COc1nc(C)nc(Cl)c1NC1=NCCN1` [MOXONIDINE], the IC50 result (in data set [1]; in data set [2] (chem-1); in data set [3] (cho-k1); in data set [4]; in data set [5]; on Adenosine receptor A2a) was “Not Active” in each case. For the same molecule, the IC50 entry at Cytochrome P450 3A4 was “Not Active”. Besides, the Ki result at Cytochrome P450 3A4 was “Not Active”.
Consider `COc1c(C)c2c(c(O)c1C/C=C(\C)CCC(=O)O)C(=O)OC2` [MYCOPHENOLIC ACID], for which the 50% inhibitory concentration (IC50) entry (in data set [1]; in data set [2] (chem-1); in data set [3] (cho-k1); in data set [4]; in data set [5]; on Adenosine receptor A2a) was “Not Active” each time. Further, the IC50 result against Cytochrome P450 3A4 was “Not Active”. Besides, the Ki result at Cytochrome P450 3A4 is reported as “Not Active”.
Consider `O=c1ncn2nc(Sc3ccc(F)cc3F)ccc2c1-c1c(Cl)cccc1Cl` [NEFLAMAPIMOD], for which the concentration for half-maximal inhibition (IC50) entry (in data set [1]; in data set [2] (chem-1); in data set [3] (cho-k1); in data set [4]; in data set [5]; at Adenosine receptor A2a) was “Not Active” each time. The IC50 result against Cytochrome P450 3A4 is “Not Active”. The Ki entry on Cytochrome P450 3A4 is on record as “Not Active”.
Regarding `CN1CCN(CCCN2c3ccccc3Sc3ccc(Cl)cc32)CC1` [PROCHLORPERAZINE], the IC50 in data set [1] (read-out: IC50) was 1160 nM; in data set [2] (chem-1), “Not Active”; in data set [3] (read-out: IC50), 1360 nM; in data set [4], “Not Active”; in data set [5], “Not Active”; at Adenosine receptor A2a it was “Not Active”. The half-maximal inhibitory concentration (IC50) result against Cytochrome P450 3A4 is on record as “Not Active”. For the same molecule, the inhibition constant Ki in data set [1] (read-out: Ki) was 194 nM; in data set [3] it was 190 nM; at Cytochrome P450 3A4, “Not Active”.
`CO[C@H]1/C=C/O[C@@]2(C)Oc3c(C)c(O)c4c(O)c(c(/C=N/N5CCN(C)CC5)c(O)c4c3C2=O)NC(=O)/C(C)=C\C=C\[C@H](C)[C@H](O)[C@@H](C)[C@@H](O)[C@@H](C)[C@H](OC(C)=O)[C@@H]1C` [RIFAMPIN]: the IC50 entry (in data set [1]; in data set [2] (chem-1); in data set [3] (cho-k1); in data set [4]; in data set [5]; at Adenosine receptor A2a) was “Not Active” each time.
For `Nc1nc2ccc(OC(F)(F)F)cc2s1` [RILUZOLE], the IC50 entry (in data set [1]; in data set [2] (chem-1); in data set [3] (cho-k1); in data set [4]; in data set [5]; at Adenosine receptor A2a) was “Not Active” in each case.
Turning to `Cc1nc2n(c(=O)c1CCN1CCC(c3noc4cc(F)ccc34)CC1)CCCC2` [RISPERIDONE], the IC50 entry (in data set [1]; in data set [2] (chem-1); in data set [3] (cho-k1); in data set [4]; in data set [5]; at Adenosine receptor A2a) was “Not Active” in each case.
As to `CC/C(=C(\c1ccccc1)c1ccc(OCCN(C)C)cc1)c1ccccc1` [TAMOXIFEN], the IC50 result in data set [1] is “Not Active”; in data set [2] (chem-1), “Not Active”; in data set [3] (read-out: IC50), 4820 nM; in data set [4] it was “Not Active”; in data set [5], “Not Active”; against Cytochrome P450 3A4, “Not Active”. Also, the inhibition constant Ki in data set [3] was 672 nM; on Cytochrome P450 3A4, “Not Active”.
Take `CCCOc1ccccc1-c1nc2nn[nH]c2c(=O)[nH]1` [ZAPRINAST]: the IC50 entry (in data set [1]; in data set [2] (chem-1); in data set [3] (cho-k1); in data set [5]; at Adenosine receptor A2a; at Cytochrome P450 3A4) was “Not Active” in each case. The Ki entry at Cytochrome P450 3A4 is “Not Active”.
